Data: patent publication US20260374756A1, “HETEROCYCLIC COMPOUNDS AS INHIBITORS OF MONOACYLGLYCEROL LIPASE (MAGL)” (Hoffmann-La Roche Inc., priority 2022, published 2026)

The compounds below were run against T1, hMAGL (Homo sapiens, UniProt Q99685) (assay: 2-AG assay: MAGL inhibition, hydrolysis of 2-arachidonoylglycerol to arachidonic acid followed by mass spectrometry).
T1 sequence (Q99685 1-303): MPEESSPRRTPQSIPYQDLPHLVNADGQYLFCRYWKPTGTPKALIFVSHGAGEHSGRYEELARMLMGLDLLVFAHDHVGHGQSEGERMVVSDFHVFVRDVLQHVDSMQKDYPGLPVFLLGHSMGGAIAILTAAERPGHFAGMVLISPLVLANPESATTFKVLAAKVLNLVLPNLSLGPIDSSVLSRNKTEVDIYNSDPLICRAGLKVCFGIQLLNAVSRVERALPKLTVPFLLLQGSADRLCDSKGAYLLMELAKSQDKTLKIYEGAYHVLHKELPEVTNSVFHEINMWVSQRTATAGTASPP
Type: biochemical
Method in brief: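 MAGL preincubated with compound 15 min at RT in 50 mM Tris, 1 mM EDTA, 0.01% Tween-20, 2.5% DMSO; reaction started with 8 μM 2-AG (final), […], 30 min at RT. Quenched with acetonitrile containing d8-arachidonic acid; arachidonic acid quantified by RapidFire SPE-triple quad MS as arachidonic acid/d8 ratio.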
With `O=C(N1CC2(CC(n3cnc(C4CC4)n3)C2)C1)N1CC2(CN(Cc3cc(C(F)(F)F)on3)C2)C1` [Example 190, [6-(3-cyclopropyl-1,2,4-triazol-1-yl)-2-azaspiro[3.3]heptan-2-yl]-[6-[[5-(trifluoromethyl)isoxazol-3-yl]methyl]-2,6-diazaspiro[3.3]heptan-2-yl]methanone] the IC50 was 7.53 nM.
For `Cn1cc(CN2CC3(C2)CN(C(=O)N2CC4(CC(n5cnc(C(F)(F)F)n5)C4)C2)C3)c(C(F)(F)F)n1` [Example 191, [6-[[1-methyl-3-(trifluoromethyl)pyrazol-4-yl]methyl]-2,6-diazaspiro[3.3]heptan-2-yl]-[6-[3-(trifluoromethyl)-1,2,4-triazol-1-yl]-2-azaspiro[3.3]heptan-2-yl]methanone], the IC50 was 154 nM.
Work on `Cn1cc(CN2CC3(C2)CN(C(=O)N2CC4(CC(n5cnc(C6CC6)n5)C4)C2)C3)c(C(F)(F)F)n1` [Example 192] yielded an IC50 of 16.8 nM.
With `O=C(N1CC2(CC(n3cnc(C(F)(F)F)n3)C2)C1)N1CC2(CN(Cc3nnn(CC(F)(F)F)n3)C2)C1` [Example 193, [6-[[2-(2,2,2-trifluoroethyl)tetrazol-5-yl]methyl]-2,6-diazaspiro[3.3]heptan-2-yl]-[6-[3-(trifluoromethyl)-1,2,4-triazol-1-yl]-2-azaspiro[3.3]heptan-2-yl]methanone] the IC50 was 730 nM.
Compound `O=C(N1CC2(CC(n3cnc(C4CC4)n3)C2)C1)N1CC2(CN(Cc3nnn(CC(F)(F)F)n3)C2)C1` [Example 194, [6-(3-cyclopropyl-1,2,4-triazol-1-yl)-2-azaspiro[3.3]heptan-2-yl]-[6-[[2-(2,2,2-trifluoroethyl)tetrazol-5-yl]methyl]-2,6-diazaspiro[3.3]heptan-2-yl]methanone] has an IC50 of 149 nM.
In the case of `O=C(N1CC2(CC(n3cnc(C(F)(F)F)n3)C2)C1)N1CC2(CN(Cc3cnn(CC(F)(F)F)n3)C2)C1` [Example 195, [6-[[2-(2,2,2-trifluoroethyl)triazol-4-yl]methyl]-2,6-diazaspiro[3.3]heptan-2-yl]-[6-[3-(trifluoromethyl)-1,2,4-triazol-1-yl]-2-azaspiro[3.3]heptan-2-yl]methanone], the IC50 is reported as 439 nM.
In the case of `O=C(N1CC2(CC(n3cnc(C4CC4)n3)C2)C1)N1CC2(CN(Cc3cnn(CC(F)(F)F)n3)C2)C1` [Example 196, [6-(3-cyclopropyl-1,2,4-triazol-1-yl)-2-azaspiro[3.3]heptan-2-yl]-[6-[[2-(2,2,2-trifluoroethyl)triazol-4-yl]methyl]-2,6-diazaspiro[3.3]heptan-2-yl]methanone], the IC50 is reported as 79 nM.
`O=C(N1CC2(CC(n3cnc(C(F)(F)F)n3)C2)C1)N1CC2(CN(Cc3nnnn3CC(F)(F)F)C2)C1` [Example 197, [6-[[1-(2,2,2-trifluoroethyl)tetrazol-5-yl]methyl]-2,6-diazaspiro[3.3]heptan-2-yl]-[6-[3-(trifluoromethyl)-1,2,4-triazol-1-yl]-2-azaspiro[3.3]heptan-2-yl]methanone] was tested, and the IC50 was 445 nM.
With `O=C(N1CC2(CC(n3cnc(C4CC4)n3)C2)C1)N1CC2(CN(Cc3nnnn3CC(F)(F)F)C2)C1` [Example 198, [6-(3-cyclopropyl-1,2,4-triazol-1-yl)-2-azaspiro[3.3]heptan-2-yl]-[6-[[1-(2,2,2-trifluoroethyl)tetrazol-5-yl]methyl]-2,6-diazaspiro[3.3]heptan-2-yl]methanone] the IC50 was 71.5 nM.
In the case of `CC(C)(C)c1csc(CN2CC3(C2)CN(C(=O)N2CC4(CC(n5cnc(C6(O)CC6)n5)C4)C2)C3)n1` [Example 199, [6-[(4-tert-butylthiazol-2-yl)methyl]-2,6-diazaspiro[3.3]heptan-2-yl]-[6-[3-(1-hydroxycyclopropyl)-1,2,4-triazol-1-yl]-2-azaspiro[3.3]heptan-2-yl]methanone], the IC50 is reported as 6.7 nM.
Compound `CC(C)(C)c1csc(CN2CC3(C2)CN(C(=O)N2CC4(CC(n5cnc(C(F)(F)F)n5)C4)C2)C3)n1` [Example 200, [6-[(4-tert-butylthiazol-2-yl)methyl]-2,6-diazaspiro[3.3]heptan-2-yl]-[6-[3-(trifluoromethyl)-1,2,4-triazol-1-yl]-2-azaspiro[3.3]heptan-2-yl]methanone] has an IC50 of 1.16 nM.
`CC(C)(C)c1csc(CN2CC3(C2)CN(C(=O)N2CC4(CC(n5cnc(C6CC6)n5)C4)C2)C3)n1` [Example 201, [6-[(4-tert-butylthiazol-2-yl)methyl]-2,6-diazaspiro[3.3]heptan-2-yl]-[6-(3-cyclopropyl-1,2,4-triazol-1-yl)-2-azaspiro[3.3]heptan-2-yl]methanone] was tested, and the IC50 was 0.64 nM.
With `O=C(N1CC2(CC(Cc3cnn(CC(F)(F)F)n3)C2)C1)N1CC2(CC(n3cnc(C4(O)CC4)n3)C2)C1` [Example 202, [6-[3-(1-hydroxycyclopropyl)-1,2,4-triazol-1-yl]-2-azaspiro[3.3]heptan-2-yl]-[6-[[2-(2,2,2-trifluoroethyl)triazol-4-yl]methyl]-2-azaspiro[3.3]heptan-2-yl]methanone] the IC50 was 12.5 nM.
With `O=C(N1CC2(CC(Cc3ncn(CC(F)(F)F)n3)C2)C1)N1CC2(CC(n3cnc(C4(O)CC4)n3)C2)C1` [Example 203, [6-[3-(1-hydroxycyclopropyl)-1,2,4-triazol-1-yl]-2-azaspiro[3.3]heptan-2-yl]-[6-[[1-(2,2,2-trifluoroethyl)-1,2,4-triazol-3-yl]methyl]-2-azaspiro[3.3]heptan-2-yl]methanone] the IC50 was 135 nM.
`O=C(N1CC2(CC(Cc3nc(CC(F)(F)F)n[nH]3)C2)C1)N1CC2(CC(n3cnc(C(F)(F)F)n3)C2)C1` [Example 204, [6-[[3-(2,2,2-trifluoroethyl)-1H-1,2,4-triazol-5-yl]methyl]-2-azaspiro[3.3]heptan-2-yl]-[6-[3-(trifluoromethyl)-1,2,4-triazol-1-yl]-2-azaspiro[3.3]heptan-2-yl]methanone] showed an IC50 of 25.8 nM.
Compound `O=C(N1CC2(CC(Cc3nc(CC(F)(F)F)n[nH]3)C2)C1)N1CC2(CC(n3cnc(C4(O)CC4)n3)C2)C1` [Example 205, [6-[3-(1-hydroxycyclopropyl)-1,2,4-triazol-1-yl]-2-azaspiro[3.3]heptan-2-yl]-[6-[[3-(2,2,2-trifluoroethyl)-1H-1,2,4-triazol-5-yl]methyl]-2-azaspiro[3.3]heptan-2-yl]methanone] has an IC50 of 72.9 nM.
For `O=C(N1CC2(CC(n3cnc(C(F)(F)F)n3)C2)C1)N1CC2(CN(Cc3nc(CC(F)(F)F)no3)C2)C1` [Example 206], the IC50 was 149 nM.
Work on `O=C(N1CC2(CC(n3cnc(C4CC4)n3)C2)C1)N1CC2(CN(Cc3nc(CC(F)(F)F)no3)C2)C1` [Example 207, [6-(3-cyclopropyl-1,2,4-triazol-1-yl)-2-azaspiro[3.3]heptan-2-yl]-[6-[[3-(2,2,2-trifluoroethyl)-1,2,4-oxadiazol-5-yl]methyl]-2,6-diazaspiro[3.3]heptan-2-yl]methanone] yielded an IC50 of 25.6 nM.
Work on `CC(C)(C)c1nnc(CN2CC3(C2)CN(C(=O)N2CC4(CC(n5cnc(C(F)(F)F)n5)C4)C2)C3)s1` [Example 208, [6-[(5-tert-butyl-1,3,4-thiadiazol-2-yl)methyl]-2,6-diazaspiro[3.3]heptan-2-yl]-[6-[3-(trifluoromethyl)-1,2,4-triazol-1-yl]-2-azaspiro[3.3]heptan-2-yl]methanone] yielded an IC50 of 3.74 nM.
Work on `CC(C)(C)c1nnc(CN2CC3(C2)CN(C(=O)N2CC4(CC(n5cnc(C6CC6)n5)C4)C2)C3)s1` [Example 209, [6-[(5-tert-butyl-1,3,4-thiadiazol-2-yl)methyl]-2,6-diazaspiro[3.3]heptan-2-yl]-[6-(3-cyclopropyl-1,2,4-triazol-1-yl)-2-azaspiro[3.3]heptan-2-yl]methanone] yielded an IC50 of 5.28 nM.
`CC(C)(C)c1nnc(CN2CC3(C2)CN(C(=O)N2CC4(CC(n5cnc(C6(O)CC6)n5)C4)C2)C3)s1` [Example 210, [6-[(5-tert-butyl-1,3,4-thiadiazol-2-yl)methyl]-2,6-diazaspiro[3.3]heptan-2-yl]-[6-[3-(1-hydroxycyclopropyl)-1,2,4-triazol-1-yl]-2-azaspiro[3.3]heptan-2-yl]methanone] showed an IC50 of 28 nM.
`O=C(N1CC2(CC(n3cnc(C(F)(F)F)n3)C2)C1)N1CC2(CN(Cc3cnc(C(F)(F)F)o3)C2)C1` [Example 211, [6-[[2-(trifluoromethyl)oxazol-5-yl]methyl]-2,6-diazaspiro[3.3]heptan-2-yl]-[6-[3-(trifluoromethyl)-1,2,4-triazol-1-yl]-2-azaspiro[3.3]heptan-2-yl]methanone] gave an IC50 of 52.9 nM.
With `O=C(N1CC2(CC(n3cnc(C4CC4)n3)C2)C1)N1CC2(CN(Cc3cnc(C(F)(F)F)o3)C2)C1` [Example 212, [6-(3-cyclopropyl-1,2,4-triazol-1-yl)-2-azaspiro[3.3]heptan-2-yl]-[6-[[2-(trifluoromethyl)oxazol-5-yl]methyl]-2,6-diazaspiro[3.3]heptan-2-yl]methanone] the IC50 was 13.1 nM.
With `O=C(N1CC2(CC(n3cnc(C(F)(F)F)n3)C2)C1)N1CC2(CN(Cc3coc(C(F)(F)F)n3)C2)C1` [Example 213, [6-[[2-(trifluoromethyl)oxazol-4-yl]methyl]-2,6-diazaspiro[3.3]heptan-2-yl]-[6-[3-(trifluoromethyl)-1,2,4-triazol-1-yl]-2-azaspiro[3.3]heptan-2-yl]methanone] the IC50 was 168 nM.
In the case of `O=C(N1CC2(CC(n3cnc(C4CC4)n3)C2)C1)N1CC2(CN(Cc3coc(C(F)(F)F)n3)C2)C1` [Example 214, [6-(3-cyclopropyl-1,2,4-triazol-1-yl)-2-azaspiro[3.3]heptan-2-yl]-[6-[[2-(trifluoromethyl)oxazol-4-yl]methyl]-2,6-diazaspiro[3.3]heptan-2-yl]methanone], the IC50 is reported as 28.5 nM.
